Results as given in patent US20120323022A1, “(2'S)-COLUMBIANETIN ISOLATED FROM CORYDALIS HETEROCARPA AND COMPOSITION CONTAINING THE SAME” (priority 2011, published 2012).

Legend:
Assay type in all cases: cell-based, Human
MMP-9 (gelatinase B) = experiment: RT-PCR and Western blot, MMP-9 expression in UVB-exposed cells; conditions: HaCaT, UVB 40 mJ/cm^2, RT-PCR and Western blot, FIG. 5
Description: (§1) Human keratinocyte (HaCaT, Korean Cell Line Bank, Seoul, Korea) cells were grown in Dulbecco's modified Eagle medium (DMEM, Gibco-BRL, Gaithersbrug, Md., USA) containing 10% fetal bovine serum (FBS), 2 mM glutamine and 100 μg/mL penicillin-streptomycin (Gibco-BRL, Gaithersbrug, Md., USA) at 37° C. humidified atmosphere of 5% CO2. Cells were sub-cultured to about 90-95% confluence by detaching with trypsin-EDTA solution.
(§2) Total cellular RNA was isolated using Trizol reagent (Invitrogen Co., CA, USA). The 2 μg of isolated RNA was reverse transcribed into cDNA using oligo-(dT) primer (Promega, Madison, Wis., USA). […] Finally, the relative band densities were determined using a LAS3000® Luminescent image analyzer (Fujifilm Life Science, Tokyo, Japan).
(§3) Whole cells were lysed in RIPA buffer (Sigma-Aldrich Corp., St. Louis, USA) at 4° C. for 30 min. After centrifugation, total protein amount of cell lysates were determined using Lowry method (BioRad Laboratories, Hercules, Calif.). […] Bound antibodies were detected by horseradish peroxidase-conjugated secondary antibodies for 1 h at room temperature and the immunoreactive proteins were detected using a chemiluminescent ECL assay kit (Amersham Pharmacia Biosciences, England, UK) according to the manufacturer's instructions. […]

HaCaT cells [1] = experiment: Microscopic image of morphological changes in UVB-exposed cells; conditions: UVB 40 mJ/cm^2, microscopic image, FIG. 2C
Description: as §1
To determine the appropriate energy level of UVB irradiation, the cytotoxicity of keratinocytes cultured from the above was determined by comparing the data obtained from MTT and LDH leakage for 6, 12, 24 and 48 h after UVB irradiation from 10 to 3000 mJ/cm^2. Exposure of cells to UVB energy induced significant decrease of cell viability (FIG. 1A) and increase of LDH release in a UVB exposure-dependent manner (FIG. 1B). Morphological changes in keratinocyte cells for different incubation periods (6, 12, 24 and 48 h) after UVB exposure of cells in a range of 10-3000 mJ/cm^2 were compared (FIG. 1C). A larger proportion of cells were swelling and dying in a dose- and time-dependent manner.
(§4) Based on the above results, effects of (2′S)-columbianetin on the viability and injury degree of UVB-exposed keratinocyte cells were examined at incubation for 24 h after UVB exposure of 40 mJ/cm^2.

TIMP-2 = experiment: RT-PCR and Western blot, TIMP-2 expression in UVB-exposed cells; conditions: HaCaT, UVB 40 mJ/cm^2, FIG. 5
Description: as §1, §2, §3

[2] = test system: extracellular signal-related kinase (ERK1/2); experiment: Western blot, phosphorylated ERK1/2 in UVB-exposed cells; conditions: UVB-exposed HaCaT cells, FIG. 6
Description: as §1, §3

[3] = test system: c-Jun N-terminal kinase (JNK); experiment: Western blot, phosphorylated JNK in UVB-exposed cells; conditions: UVB-exposed HaCaT cells, FIG. 6
Description: as §1, §3

intracellular ROS = experiment: Intracellular ROS generation (DCFH-DA) in UVB-exposed cells; conditions: UVB 40 mJ/cm^2, treated 24 h, FIG. 3
Description: as §1
The levels of intracellular ROS generation were detected using the oxidation sensitive dye 2′,7′-dichlorofluorescin diacetate (DCFH-DA). The cells were grown in a 96-well microplate with fluorescence for 24 h and followed by exposure to UVB (40 mJ/cm^2). The exposed cells were treated with (2′S)-columbianetin for 24 h and then they were loaded with 20 μM of DCFH-DA in PBS and incubated for 30 min in the dark at 37° C. under a humidified atmosphere with 5% CO2. Finally, cells were washed twice with PBS and the fluorescence of DCF in PBS was detected at an excitation wavelength of 485 nm and an emission wavelength of 535 nm using a fluorescence microplate reader (Tacan Austria GmbH, Salzburg, Austria) and the result is shown in FIG. 3.

Bax = experiment: Western blot, Bax in UVB-exposed cells; conditions: UVB-exposed HaCaT cells, FIG. 7B
Description: as §1, §3

HaCaT cells [4] = experiment: MTT assay, viability of UVB-exposed keratinocyte cells; conditions: UVB 40 mJ/cm^2, incubation 24 h, compared with only UVB-exposed cells, FIG. 2A
Description: as §1
The viability levels of keratinocyte cells were determined by the ability of mitochondria to convert 3-(4,5-dimethylthiazol-2-yl)-2,5-diphenyl tetrazolium bromide (MTT) to insoluble formazan product. Briefly, cells were grown in 96-well plates at a density of 1×10^4 cells/well. After incubation for 24 h, the cells were stimulated by UVB irradiation (40 mJ/cm^2) and incubated for 24 h in the absence or presence of (2′S)-columbianetin at 37° C. under a humidified atmosphere of 5% CO2. The supernatant medium was removed and 100 μL of 1 mg/mL MTT reagent was added to each well, followed by incubation for 4 h. After removal of unconverted MTT, the amount of formazan in the cells was determined by adding DMSO (dimethyl sulfoxide) to wells and measuring optical density (OD) at 540 nm using a microplate reader (Tacan Austria GmbH, Salzburg, Austria). Relative cell viability was calculated as the percentage of viability of untreated cells that were considered the control. […]

c-fos = experiment: Western blot, AP-1 activation (c-fos) in UVB-exposed cells; conditions: UVB-exposed HaCaT cells, FIG. 7A
Description: as §1, §3

p53 = experiment: Western blot, phosphorylated p53 in UVB-exposed cells; conditions: UVB-exposed HaCaT cells, FIG. 7B
Description: as §1, §3

MMP-2 (gelatinase A) = experiment: RT-PCR and Western blot, MMP-2 expression in UVB-exposed cells; conditions: HaCaT, UVB 40 mJ/cm^2, RT-PCR and Western blot, FIG. 5
Description: as §1, §2, §3

p38 MAPK = experiment: Western blot, phosphorylated p38 MAPK in UVB-exposed cells; conditions: UVB-exposed HaCaT cells, FIG. 6
Description: as §1, §3

HaCaT cells [5] = experiment: LDH release assay, cell injury of UVB-exposed cells; conditions: UVB 40 mJ/cm^2, incubation 24 h, FIG. 2B
Description: as §1
Cell injury was measured by quantifying the amount of lactate dehydrogenase (LDH)-release using a commercial LDH cytotoxicity detection kit (TaKaRa Biomedicals, Tokyo, Japan). Cells were exposed according to the experiment design. The conditioned medium of the UVB-exposed cells was collected for LDH measurement. The substrate mix solution was added to aliquots of the supernatant medium at 1:1 ratio and incubated at 37° C. for 30 min under light protected conditions. Then, the absorbance was determined at 490 nm immediately after the addition of 1N HCl stop solution (final concentration, 0.2 N) using a microplate reader (Tacan Austria GmbH, Salzburg, Austria). Control was prepared with 0.1% (w/v) Triton X-100, which was defined as 100% LDH release.
as §4

[6] = test system: genomic DNA of keratinocyte cells; experiment: Genomic DNA extraction and DNA oxidation, agarose gel; conditions: UVB-stimulated cells, FIG. 4
Description: as §1
Genomic DNA was isolated from keratinocyte cells using standard phenol/proteinase K procedure with slight modifications (J. Sambrook, D. W. Russell, Molecular Cloning: A Laboratory Manual; 3rd ed. Cold Spring Harbor Laboratory Press: Cold Spring Harbor. 2001). In brief, UVB-stimulated cells in the presence and absence of sample were washed twice with PBS and collected using 1 mL of PBS containing 10 mM EDTA. After centrifugation at 13,400×g for 5 min at 4° C., the deposited cells were resuspended in 410 μL of solution including RNase A (0.5 mg/mL), proteinase K (10 mg/mL), SDS (10%) and NaOAC (0.2 M). After that, this mixture was incubated at 37° C. for 30 min and 55° C. for 1 h. Following incubation, phenol:chloroform:iso-amylalcohol (25:24:1) was added at 1:1 ratio, after which the mixture was centrifuged at 13,400×g for 5 min at 4° C. […] Purity of DNA was determined by ratio of absorbance at 260 and 280 nm using spectrophotometric assay. […]

TIMP-1 = experiment: RT-PCR and Western blot, TIMP-1 expression in UVB-exposed cells; conditions: HaCaT, UVB 40 mJ/cm^2, FIG. 5
Description: as §1, §2, §3

For `CC(C)(O)C1Cc2c(ccc3ccc(=O)oc23)O1` (stereo not drawn) [(2′S)-columbianetin], the “expression level of UVB-mediated gelatinase B (MMP-9) gene and protein” value (MMP-9 (gelatinase B)) was “reduced by (2′S)-columbianetin in a dose-dependent manner”, the “morphological changes in cells due to UV” value (HaCaT cells [1]) was “effectively suppressed the morphological changes in cells” and the TIMP-2 expression (TIMP-2) was “dose-dependently enhanced”. For the same compound, the “expression of phosphorylated ERK1/2 protein” value [2] was “effectively decreased the regulations”, the “expression of phosphorylated JNK protein” value [3] was “effectively decreased the regulations” and the “DCF fluorescence intensity (intracellular ROS)” value (intracellular ROS) was “significantly reduced DCF fluorescence intensity in a dose-dependent manner”. For the same compound, the “expression level of Bax protein” value (Bax) was “the increments were suppressed”, the “cell viability (MTT)” value (HaCaT cells [4]) was “substantially increased cell viability in a dose-dependent manner” and the “activated nuclear transcription factor c-fos” value (c-fos) was “significantly down-regulated”. For the same compound, the “expression level of phosphorylated p53” value (p53) was “the increments were suppressed”, the “expression level of UVB-mediated gelatinase A (MMP-2) gene and protein” value (MMP-2 (gelatinase A)) was “reduced by (2′S)-columbianetin in a dose-dependent manner” and the “expression of phosphorylated p38 MAPK protein” value (p38 MAPK) was “effectively decreased the regulations”. The “degree of cell injury (LDH release)” value (HaCaT cells [5]) was “substantially decreased the degree of cell injury by UVB exposure in a dose-dependent manner”, the “protective effect on DNA damage due to UVB exposure” value [6] was “adequate protective effect on DNA damage” and the TIMP-1 expression (TIMP-1) was “dose-dependently enhanced”.
